Results as given in the supplement of paper PMC5908809.

What was measured:
[1] = system: normal NK cells expanded with K562-aAPC; assay: percent inhibition of viability; higher = more inhibition; conditions: 72 h, IL-2 2.5 ng/mL
Experimental: (§1)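 Drug sensitivity and resistance testing on K562-aAPC-expanded normal NK cells: 5 concentrations (10-fold steps over a 10,000-fold range), 72 h at 37 °C, viability by CellTiter-Glo normalised to DMSO and benzethonium chloride controls; DSS from the fitted curve.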

DERL-7 (IL-2 2.5 ng/mL) [2] = assay: as above; conditions: 72 h
IMC-1 (IL-2 20 ng/mL) [3] = assay: as above; conditions: 72 h
KAI3 (IL-2 2.5 ng/mL) [4] = assay: as above; conditions: 72 h
KHYG-1 (IL-2 2.5 ng/mL) [5] = assay: as above; conditions: 72 h
NK-92 (IL-2 2.5 ng/mL) [6] = assay: as above; conditions: 72 h
NK-YS (IL-2 2.5 ng/mL) [7] = assay: as above; conditions: 72 h
NKL (IL-2 2.5 ng/mL) [8] = assay: as above; conditions: 72 h
SNK-6 (IL-2 2.5 ng/mL) [9] = assay: as above; conditions: 72 h
YT (IL-2 2.5 ng/mL) [10] = assay: as above; conditions: 72 h
[11] = system: normal primary NK cells, pool 1 (3 donors) (IL-2 2.5 ng/mL); assay: as above; conditions: 72 h
[12] = system: normal primary NK cells, pool 1 (3 donors), resting (IL-2 0 ng/mL); assay: as above; conditions: 72 h
[13] = system: normal primary NK cells, pool 2 (3 donors) (IL-2 2.5 ng/mL); assay: as above; conditions: 72 h
[14] = system: normal primary NK cells, pool 3 (3 donors) (IL-2 2.5 ng/mL); assay: as above; conditions: 72 h
[15] = system: normal NK cells expanded with K562-aAPC; assay: drug sensitivity score (DSS) (DSS units); higher = more sensitive; extreme values may be limits of the assay; conditions: 72 h; IL-2 2.5 ng/mL
Experimental: as §1

DERL-7 (IL-2 2.5 ng/mL) [16] = assay: as above; conditions: 72 h
IMC-1 (IL-2 20 ng/mL) [17] = assay: as above; conditions: 72 h
KAI3 (IL-2 2.5 ng/mL) [18] = assay: as above; conditions: 72 h
KHYG-1 (IL-2 2.5 ng/mL) [19] = assay: as above; conditions: 72 h
NK-92 (IL-2 2.5 ng/mL) [20] = assay: as above; conditions: 72 h
NK-YS (IL-2 2.5 ng/mL) [21] = assay: as above; conditions: 72 h
NKL (IL-2 2.5 ng/mL) [22] = assay: as above; conditions: 72 h
SNK-6 (IL-2 2.5 ng/mL) [23] = assay: as above; conditions: 72 h
YT (IL-2 2.5 ng/mL) [24] = assay: as above; conditions: 72 h
[25] = system: normal primary NK cells, pool 1 (3 donors) (IL-2 2.5 ng/mL); assay: as above; conditions: 72 h
[26] = system: normal primary NK cells, pool 1 (3 donors), resting (IL-2 0 ng/mL); assay: as above; conditions: 72 h
[27] = system: normal primary NK cells, pool 2 (3 donors) (IL-2 2.5 ng/mL); assay: as above; conditions: 72 h
[28] = system: normal primary NK cells, pool 3 (3 donors) (IL-2 2.5 ng/mL); assay: as above; conditions: 72 h

O=S(=O)(c1cccc2c(O)nccc12)N1CCCNCC1 [Hydroxyfasudil] (max concentration tested 37500 nM)
percent inhibition of viability [%]
Conditions	3.75 nM	37.5 nM	375 nM	3750 nM	37500 nM
DERL-7 (IL-2 2.5 ng/mL) [2]	2.41	-1.56	-3.11	9.25	29.7
IMC-1 (IL-2 20 ng/mL) [3]	-4.78	-3.11	0.96	2.27	5.47
KAI3 (IL-2 2.5 ng/mL) [4]	-11.8	-3.4	2.23	-8.56	32.2
KHYG-1 (IL-2 2.5 ng/mL) [5]	-8.68	0.53	6.74	10.9	23
NK-92 (IL-2 2.5 ng/mL) [6]	2.93	2.6	5.94	-2.67	19.6
NK-YS (IL-2 2.5 ng/mL) [7]	-6.95	-1.93	3.17	-3.19	18.9
NKL (IL-2 2.5 ng/mL) [8]	3.67	6.42	10.9	12.7	31.9
SNK-6 (IL-2 2.5 ng/mL) [9]	2.11	-9.82	10.9	4.05	52
YT (IL-2 2.5 ng/mL) [10]	-4.2	0.69	4.57	-4.39	2.68
[1]	-7.06	-1.95	-4.05	11.7	18.2
[11]	-10.4	-4.9	-10.6	-4.54	17.3
[12]	-1.24	11.4	11.7	-5.48	13.2
[13]	-5.27	-3.13	-1.92	7.54	31.2
[14]	-6.09	-6.32	12.8	7.6	21.9

Conditions	drug sensitivity score
DERL-7 (IL-2 2.5 ng/mL) [16]	2.59
IMC-1 (IL-2 20 ng/mL) [17]	0
KAI3 (IL-2 2.5 ng/mL) [18]	1.06
KHYG-1 (IL-2 2.5 ng/mL) [19]	1.61
NK-92 (IL-2 2.5 ng/mL) [20]	0.43
NK-YS (IL-2 2.5 ng/mL) [21]	0.37
NKL (IL-2 2.5 ng/mL) [22]	3.11
SNK-6 (IL-2 2.5 ng/mL) [23]	3.39
YT (IL-2 2.5 ng/mL) [24]	0
[15]	1.51
[25]	0.25
[26]	0.05
[27]	2.54
[28]	1.36

CN(C)c1nc(N(C)C)nc(N(C)C)n1 [Altretamine] (max concentration tested 10000 nM)
percent inhibition of viability [%]
Conditions	1 nM	10 nM	100 nM	1000 nM	10000 nM
DERL-7 (IL-2 2.5 ng/mL) [2]	-4.53	-2.77	0.97	2.22	0.81
IMC-1 (IL-2 20 ng/mL) [3]	-2.71	0.47	-4.67	-2.63	-6.93
KAI3 (IL-2 2.5 ng/mL) [4]	3.52	10.7	11.4	24.1	24.6
KHYG-1 (IL-2 2.5 ng/mL) [5]	-7.38	-7.34	-6.09	-2.99	-6.61
NK-92 (IL-2 2.5 ng/mL) [6]	-14.2	-12.6	-6.86	-1.41	-0.2
NK-YS (IL-2 2.5 ng/mL) [7]	1.59	-1.58	1.2	11.7	9.31
NKL (IL-2 2.5 ng/mL) [8]	-10	-9.91	-10.4	1.45	1.87
SNK-6 (IL-2 2.5 ng/mL) [9]	-4.42	-8.89	-0.39	6.56	-2.57
YT (IL-2 2.5 ng/mL) [10]	-3.72	-5.67	-6.12	-0.77	-8.31
[1]	-2.99	-3.76	0.47	-2.02	-2.72
[11]	-5.08	-6.48	-0.04	-1.59	3.54
[12]	-0.78	-0.59	9.13	16.1	26
[13]	-3.77	-3.94	-0.13	0	1.61
[14]	-9.05	-7.82	-1.85	-3.99	3.69

Conditions	drug sensitivity score
DERL-7 (IL-2 2.5 ng/mL) [16]	0
IMC-1 (IL-2 20 ng/mL) [17]	0
KAI3 (IL-2 2.5 ng/mL) [18]	4.61
KHYG-1 (IL-2 2.5 ng/mL) [19]	0
NK-92 (IL-2 2.5 ng/mL) [20]	0
NK-YS (IL-2 2.5 ng/mL) [21]	0.51
NKL (IL-2 2.5 ng/mL) [22]	0
SNK-6 (IL-2 2.5 ng/mL) [23]	0
YT (IL-2 2.5 ng/mL) [24]	0
[15]	0
[25]	0
[26]	2.84
[27]	0
[28]	0

COCC1(CO)C(=O)C2CCN1CC2 (stereo unspecified) [APR-246] (max concentration tested 10000 nM)
percent inhibition of viability [%]
Conditions	1 nM	10 nM	100 nM	1000 nM	10000 nM
DERL-7 (IL-2 2.5 ng/mL) [2]	4.22	1.94	4.99	-6.45	12.9
IMC-1 (IL-2 20 ng/mL) [3]	-7.37	-2.9	-3.59	8.76	9.03
KAI3 (IL-2 2.5 ng/mL) [4]	-1.81	0.4	-2.31	2.12	16.5
KHYG-1 (IL-2 2.5 ng/mL) [5]	-5.21	-0.64	-2.81	5.38	7.34
NK-92 (IL-2 2.5 ng/mL) [6]	-5.03	9.77	10.8	10.9	10.2
NK-YS (IL-2 2.5 ng/mL) [7]	-7.21	1.41	3.46	5.78	20.9
NKL (IL-2 2.5 ng/mL) [8]	-3.21	-5.06	5.12	11	36.4
SNK-6 (IL-2 2.5 ng/mL) [9]	4.82	6.66	11.8	20.5	26.2
YT (IL-2 2.5 ng/mL) [10]	-1.79	-3.13	4.5	1.6	7.67
[1]	-2.16	1.78	5.44	14.3	66.4
[11]	0.39	-11.5	5.91	70.5	98
[12]	-1.14	-6.72	13.5	82.8	91.7
[13]	-11.3	-4.04	11.3	77	96
[14]	-9.08	-4.43	12.5	73	98

Conditions	drug sensitivity score
DERL-7 (IL-2 2.5 ng/mL) [16]	0.03
IMC-1 (IL-2 20 ng/mL) [17]	0
KAI3 (IL-2 2.5 ng/mL) [18]	0.58
KHYG-1 (IL-2 2.5 ng/mL) [19]	0
NK-92 (IL-2 2.5 ng/mL) [20]	0.65
NK-YS (IL-2 2.5 ng/mL) [21]	1.17
NKL (IL-2 2.5 ng/mL) [22]	3.01
SNK-6 (IL-2 2.5 ng/mL) [23]	3.96
YT (IL-2 2.5 ng/mL) [24]	0
[15]	5.95
[25]	14.2
[26]	16.9
[27]	15.7
[28]	15.2

O=C1NC(=O)/C(=C/c2ccc3nccc(-c4ccncc4)c3c2)S1 (max concentration tested 10000 nM)
percent inhibition of viability [%]
Conditions	1 nM	10 nM	100 nM	1000 nM	10000 nM
DERL-7 (IL-2 2.5 ng/mL) [2]	-4.4	4.35	9.03	60.2	88.2
IMC-1 (IL-2 20 ng/mL) [3]	-1.41	-1.05	0.35	-13.3	36.1
KAI3 (IL-2 2.5 ng/mL) [4]	4.6	-4.46	10.8	33.3	66
KHYG-1 (IL-2 2.5 ng/mL) [5]	-3.03	-2.9	7.97	47.8	78.5
NK-92 (IL-2 2.5 ng/mL) [6]	-4.72	-6.37	-0.26	24.6	63.5
NK-YS (IL-2 2.5 ng/mL) [7]	-5.37	-5.14	5.36	42.1	74.2
NKL (IL-2 2.5 ng/mL) [8]	-16.6	-12.9	3.48	52.1	76.4
SNK-6 (IL-2 2.5 ng/mL) [9]	7.06	2.93	5.43	30.6	67.5
YT (IL-2 2.5 ng/mL) [10]	-1.99	-2.62	7.22	58.7	82.4
[1]	-7.65	-6.22	-2.48	25.2	68.2
[11]	-6.7	13.9	10.7	28.1	58.9
[12]	7.14	23.7	24.7	33.3	68.1
[13]	-5.69	2.64	12.6	32.4	82.4
[14]	-4.27	3.99	9.93	15.9	69.4

Conditions	drug sensitivity score
DERL-7 (IL-2 2.5 ng/mL) [16]	12.7
IMC-1 (IL-2 20 ng/mL) [17]	1.19
KAI3 (IL-2 2.5 ng/mL) [18]	7.69
KHYG-1 (IL-2 2.5 ng/mL) [19]	10.3
NK-92 (IL-2 2.5 ng/mL) [20]	6.85
NK-YS (IL-2 2.5 ng/mL) [21]	9.16
NKL (IL-2 2.5 ng/mL) [22]	10.6
SNK-6 (IL-2 2.5 ng/mL) [23]	7.19
YT (IL-2 2.5 ng/mL) [24]	12.1
[15]	7.25
[25]	6.93
[26]	14.1
[27]	8.23
[28]	6.25
